The structures appear in SMILES notation.

The text below walks through data of patent publication US20160091485A1, “MARKERS FOR EZH2 INHIBITORS” (THE BROAD INSTITUTE, INC., priority 2013, published 2016).

For assay [1], the system named is cancer cell lines with EZH2 gain-of-function mutations (MCS Cluster A). The assay is described as follows: Cell proliferation, cell lines sensitive by EZH2 genotype and MCS (cluster A). Particulars: FIG. 5; cells predicted to be sensitive by EZH2 genotyping and by MCS. Type of assay: cell-based. The procedure: (§1) B cell lymphoma cells were cultured using standard cell culture conditions. For example, lymphoma cells were cultured in RPMI-1640 (Invitrogen, cat #11875, Grand Island, N.Y.) supplemented with 15% FBS (Invitrogen, cat #10099-141, Grand Island, N.Y.) in humidified incubator at 37° C., 5% CO2. To assess the effect of EZH2 inhibitor on cell proliferation, exponentially growing cells were seeded at a density of 1×10^5 cells/ml in 12-well plate (Corning, cat #CLS3513 Tewksbury, Mass.). Compounds were added after cell seeding at the indicated final concentration, and viable cell number was determined every 3-4 days continuously during the course of experiment using Vi-CELL (Beckman Coulter, Brea, Calif.). On days of cell counting, fresh growth media and compound were replenished and cells split back to a density of 1×10^5 cells/ml. Total cell number and population doubling was then calculated.

In assay [2] the test system is cells carrying EZH2 gain of function mutation, not in cluster A (low levels of H3K27me3). Description: Cell proliferation, EZH2 gain of function cells not in cluster A. The format is cell-based. The following applies: FIG. 6, cells predicted sensitive by genotyping, insensitive by MCS. How it is done: as §1
In another assay the target is wild type EZH2 (Homo sapiens, UniProt Q15910). The following applies: SAM competitive; cited from earlier work.
For a further assay, the target named is Y641F EZH2 (Homo sapiens, UniProt Q15910, Y641F). The following applies: SAM competitive; cited from earlier work.
Y641F EZH2, sequence (Q15910 whole entry Y641F): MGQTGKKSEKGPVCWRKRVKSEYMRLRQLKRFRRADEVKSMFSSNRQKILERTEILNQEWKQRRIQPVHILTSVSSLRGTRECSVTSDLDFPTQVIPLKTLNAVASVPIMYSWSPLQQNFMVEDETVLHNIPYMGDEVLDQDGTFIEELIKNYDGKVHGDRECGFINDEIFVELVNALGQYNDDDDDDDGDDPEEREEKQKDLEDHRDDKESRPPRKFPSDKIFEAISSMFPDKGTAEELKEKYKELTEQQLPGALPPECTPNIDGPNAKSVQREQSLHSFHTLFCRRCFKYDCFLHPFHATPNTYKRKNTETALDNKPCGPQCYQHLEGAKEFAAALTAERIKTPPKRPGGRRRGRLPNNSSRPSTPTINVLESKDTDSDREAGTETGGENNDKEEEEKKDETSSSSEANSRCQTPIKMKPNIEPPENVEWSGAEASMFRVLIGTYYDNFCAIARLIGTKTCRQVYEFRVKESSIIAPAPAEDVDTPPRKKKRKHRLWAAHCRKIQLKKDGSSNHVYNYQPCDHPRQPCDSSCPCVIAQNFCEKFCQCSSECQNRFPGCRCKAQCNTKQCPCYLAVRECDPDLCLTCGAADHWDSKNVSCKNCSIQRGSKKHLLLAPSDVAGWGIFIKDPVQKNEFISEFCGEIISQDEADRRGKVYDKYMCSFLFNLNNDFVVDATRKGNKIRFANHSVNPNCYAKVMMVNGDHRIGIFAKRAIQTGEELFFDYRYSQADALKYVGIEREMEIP
Y641F EZH2, sequence (O75530 whole entry partner): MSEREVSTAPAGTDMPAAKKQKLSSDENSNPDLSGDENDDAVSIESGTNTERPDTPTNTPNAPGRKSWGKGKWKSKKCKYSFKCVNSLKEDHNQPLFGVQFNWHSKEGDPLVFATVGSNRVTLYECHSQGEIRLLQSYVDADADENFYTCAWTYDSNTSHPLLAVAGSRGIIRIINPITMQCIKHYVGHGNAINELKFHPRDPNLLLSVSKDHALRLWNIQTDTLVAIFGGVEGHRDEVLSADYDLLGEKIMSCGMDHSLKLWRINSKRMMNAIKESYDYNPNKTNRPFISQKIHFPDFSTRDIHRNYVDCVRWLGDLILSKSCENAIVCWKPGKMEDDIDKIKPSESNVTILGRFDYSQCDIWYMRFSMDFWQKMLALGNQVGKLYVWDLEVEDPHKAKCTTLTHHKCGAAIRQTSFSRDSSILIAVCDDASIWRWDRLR
Y641F EZH2, sequence (Q15022 whole entry partner): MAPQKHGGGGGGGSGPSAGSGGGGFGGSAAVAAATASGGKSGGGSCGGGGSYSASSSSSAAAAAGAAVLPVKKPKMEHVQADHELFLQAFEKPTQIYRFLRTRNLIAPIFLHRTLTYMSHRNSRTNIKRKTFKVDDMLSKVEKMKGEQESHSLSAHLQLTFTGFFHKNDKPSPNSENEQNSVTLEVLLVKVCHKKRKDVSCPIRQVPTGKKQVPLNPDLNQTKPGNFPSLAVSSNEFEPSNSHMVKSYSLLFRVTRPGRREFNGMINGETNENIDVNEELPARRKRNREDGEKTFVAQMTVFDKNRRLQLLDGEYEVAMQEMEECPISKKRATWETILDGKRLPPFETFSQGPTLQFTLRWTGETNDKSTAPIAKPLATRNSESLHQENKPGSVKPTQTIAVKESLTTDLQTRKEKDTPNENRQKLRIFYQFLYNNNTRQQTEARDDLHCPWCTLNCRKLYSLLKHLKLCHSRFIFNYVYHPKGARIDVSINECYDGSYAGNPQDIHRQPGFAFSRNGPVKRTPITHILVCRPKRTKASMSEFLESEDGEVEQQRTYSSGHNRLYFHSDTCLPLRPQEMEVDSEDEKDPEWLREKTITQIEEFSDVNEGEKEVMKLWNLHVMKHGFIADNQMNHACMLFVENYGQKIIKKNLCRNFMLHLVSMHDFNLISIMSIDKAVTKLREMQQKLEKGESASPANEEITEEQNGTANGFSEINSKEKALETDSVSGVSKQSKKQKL

wild type EZH2, sequence (Q15910 whole entry): as the sequence (Q15910 whole entry Y641F) above, with F641Y counted along it
wild type EZH2, sequence (O75530 whole entry partner): as the sequence (O75530 whole entry partner) above
wild type EZH2, sequence (Q15022 whole entry partner): as the sequence (Q15022 whole entry partner) above

For `CCC(CC)n1ccc2c(C(=O)NCc3c(C)cc(C)[nH]c3=O)cc(C#N)cc21` [EI1, 6-cyano-N-((4,6-dimethyl-2-oxo-1,2-dihydropyridin-3-yl)methyl)-1-(pentan-3-yl)-1H-indole-4-carboxamide], the figures for the “sensitivity of cells to EZH2 inhibitor (cell proliferation)” value in assay [1] and in assay [2] were “sensitive” and “insensitive”, respectively. Besides, the IC50 at wild type EZH2 is 9.4 nM; at Y641F EZH2 it was 13.2 nM.

Usually IC50 stands for the concentration at which inhibition is half-maximal.
